Measurements as given in paper PMC11676910, “Manganese(II) Complexes with Non-Steroidal Anti-Inflammatory Drugs: Structure and Biological Activity” (International Journal of Molecular Sciences, 2024).
Like-named read-outs stand apart in the source and are kept apart here.

What was measured:
[1] = ABTS radical scavenging assay; conditions: compound 0.1 mM in DMSO; absorbance at 734 nm 1 min after mixing
CT DNA [2] = assay: CT DNA binding by UV-vis spectroscopy titration; parameters: species or system calf; conditions: for ΔA/A0 (%) hyper-/hypo-chromism of UV band / Δλ (nm) shift of λmax: on addition of CT DNA
EB–DNA adduct (CT DNA) [3] = assay: EB displacement from EB–DNA adduct by fluorescence emission spectroscopy; assay type: binding, calf; conditions: for Stern–Volmer constant KSV (EB–DNA) / EB–DNA fluorescence quenching ΔI/Io (%): [EB] = 40 μM, [DNA] = 45 μM; for EB–DNA fluorescence quenching ΔI/Io (%): λexcitation 540 nm; for relative EB–DNA fluorescence intensity (I/Io, %) remaining: λemission = 592 nm, lowest value reached, % of the initial EB–DNA fluorescence; for quenching constant kq of the EB–DNA fluorescence: τo = 23 ns
[4] = Solubility of the complexes; assay type: physicochemical
[5] = molecular target: T1, human serum albumin (HSA) (Homo sapiens, UniProt P02768); conditions: for HSA binding constant Κ(HSA): Scatchard equation, HSA 3 μM; for relative HSA fluorescence emission intensity (I/Io %) remaining: λem,max = 340 nm, lowest value reached, % of the initial HSA fluorescence
[6] = molecular target: T2, bovine serum albumin (BSA) (Bos taurus, UniProt P02769); assay: BSA tryptophan fluorescence quenching; conditions: for BSA binding constant Κ(BSA): Scatchard equation, BSA 3 μM; for relative BSA fluorescence emission intensity (I/Io, %) remaining: λem,max = 345 nm, lowest value reached, % of the initial BSA fluorescence
[7] = parameters: concentration or dose not given beside the values; conditions: free NSAID; cited from earlier work
CT DNA [8] = conditions: cited from earlier work
EB–DNA adduct (CT DNA) [9] = conditions: cited from earlier work
[10] = molecular target: T2, bovine serum albumin (BSA); parameters: purchased Sigma–Aldrich Co; conditions: cited from earlier work
[11] = molecular target: T1, human serum albumin (HSA); parameters: purchased Sigma–Aldrich Co; conditions: cited from earlier work
[12] = first band listed in the cell, + hyperchromism, − hypochromism
[13] = first band listed in the cell, + red shift, − blue shift
[14] = second band listed in the cell, <−50 = intense hypochromism
[15] = second band listed in the cell, elim = elimination

T2 sequence (P02769 25-607): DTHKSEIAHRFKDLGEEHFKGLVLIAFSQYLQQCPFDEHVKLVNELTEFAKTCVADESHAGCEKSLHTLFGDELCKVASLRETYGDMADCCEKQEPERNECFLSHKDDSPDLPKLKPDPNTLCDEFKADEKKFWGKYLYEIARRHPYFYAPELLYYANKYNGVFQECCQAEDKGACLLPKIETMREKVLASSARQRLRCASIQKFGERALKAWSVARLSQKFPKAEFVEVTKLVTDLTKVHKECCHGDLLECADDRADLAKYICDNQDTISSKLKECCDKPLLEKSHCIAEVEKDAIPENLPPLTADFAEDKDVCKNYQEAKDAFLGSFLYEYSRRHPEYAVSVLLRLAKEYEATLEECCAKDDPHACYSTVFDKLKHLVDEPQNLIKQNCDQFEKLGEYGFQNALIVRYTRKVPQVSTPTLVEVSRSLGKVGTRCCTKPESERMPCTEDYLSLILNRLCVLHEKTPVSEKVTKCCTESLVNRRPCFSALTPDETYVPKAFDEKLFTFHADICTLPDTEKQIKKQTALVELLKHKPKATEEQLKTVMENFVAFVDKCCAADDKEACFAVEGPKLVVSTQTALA
T1 sequence (P02768 25-609): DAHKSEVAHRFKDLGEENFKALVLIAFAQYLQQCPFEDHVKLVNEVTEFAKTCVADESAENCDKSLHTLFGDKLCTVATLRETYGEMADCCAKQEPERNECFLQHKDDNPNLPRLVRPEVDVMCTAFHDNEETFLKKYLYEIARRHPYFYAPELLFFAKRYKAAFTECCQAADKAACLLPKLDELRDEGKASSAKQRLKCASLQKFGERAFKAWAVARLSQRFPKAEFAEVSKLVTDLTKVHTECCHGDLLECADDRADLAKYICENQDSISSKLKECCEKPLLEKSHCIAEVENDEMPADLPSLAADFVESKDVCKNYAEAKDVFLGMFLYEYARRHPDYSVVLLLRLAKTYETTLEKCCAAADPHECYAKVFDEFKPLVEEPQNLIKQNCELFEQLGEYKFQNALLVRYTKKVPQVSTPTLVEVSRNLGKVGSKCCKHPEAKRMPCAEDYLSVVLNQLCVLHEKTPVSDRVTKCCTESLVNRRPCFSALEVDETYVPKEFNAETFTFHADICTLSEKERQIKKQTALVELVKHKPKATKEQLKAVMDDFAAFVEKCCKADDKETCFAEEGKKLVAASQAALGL

## Cc1ccc2ccc3ccc(C)nc3c2n1.O=C([O-])c1ccccc1Nc1cccc(C(F)(F)F)c1.O=C([O-])c1ccccc1Nc1cccc(C(F)(F)F)c1.[Mn+2] [Complex 7, [Μn(fluf–O,O’)2(neoc)]]
[1]
  % ABTS radical scavenging activity (ABTS%): 29.70 ± 2.86%
CT DNA [2]; Wolfe–Shimer equation, buffer 150 mM NaCl, 15 mM trisodium citrate pH 7.0
  DNA binding constant Kb: 1.10 (±0.02) × 10^6 M^–1
CT DNA [2]; [12]
  ΔA/A0 (%) hyper-/hypo-chromism of UV band: −6%
CT DNA [2]; [13]
  Δλ (nm) shift of λmax: 0 nm
EB–DNA adduct (CT DNA) [3]
  Stern–Volmer constant KSV (EB–DNA): 5.55(±0.12) × 10^5 M^–1
  EB–DNA fluorescence quenching ΔI/Io (%): 52.1%
  relative EB–DNA fluorescence intensity (I/Io, %) remaining: 47.9%
  quenching constant kq of the EB–DNA fluorescence: 2.41 (±0.05) × 10^13 M^–1s^–1
[4]
  solubility: soluble in DMSO
[5]
  HSA binding constant Κ(HSA): 8.33 (±0.04) × 10^5 M^–1
  relative HSA fluorescence emission intensity (I/Io %) remaining: 14.4%
[6]
  BSA quenching constant kq(BSA): 4.62 (±0.11) × 10^13 M^–1s^–1
  BSA binding constant Κ(BSA): 4.69 (±0.37) × 10^5 M^–1
  relative BSA fluorescence emission intensity (I/Io, %) remaining: 10.8%

## Cc1c(Cl)cccc1Nc1ccccc1C(=O)[O-].Cc1c(Cl)cccc1Nc1ccccc1C(=O)[O-].Cc1ccc2ccc3ccc(C)nc3c2n1.[Mn+2] [Complex 8, [Μn(tolf–O,O’)2(neoc)]]
[1]
  % ABTS radical scavenging activity (ABTS%): 99.63 ± 0.07%
CT DNA [2]; [12]
  ΔA/A0 (%) hyper-/hypo-chromism of UV band: +5%
CT DNA [2]; [13]
  Δλ (nm) shift of λmax: +1 nm
CT DNA [2]; [14]
  ΔA/A0 (%) hyper-/hypo-chromism of UV band: +2%
CT DNA [2]; [15]
  Δλ (nm) shift of λmax: +2 nm
EB–DNA adduct (CT DNA) [3]
  Stern–Volmer constant KSV (EB–DNA): 2.35 (±0.48) × 10^5 M^–1
  EB–DNA fluorescence quenching ΔI/Io (%): 50.0%
  relative EB–DNA fluorescence intensity (I/Io, %) remaining: 50.0%
  quenching constant kq of the EB–DNA fluorescence: 1.02 (±0.03) × 10^13 M^–1s^–1
[4]
  solubility: soluble in DMSO
[5]
  HSA binding constant Κ(HSA): 6.35 (±0.29) × 10^5 M^–1
  relative HSA fluorescence emission intensity (I/Io %) remaining: 7.4%
[6]
  BSA quenching constant kq(BSA): 1.36 (±0.53) × 10^14 M^–1s^–1
  BSA binding constant Κ(BSA): 7.23 (±0.23) × 10^5 M^–1
  relative BSA fluorescence emission intensity (I/Io, %) remaining: 4.4%

## O=C(O)c1cc(-c2ccc(F)cc2F)ccc1O [Complex H2difl, diflunisal]
[7]
  % ABTS radical scavenging activity (ABTS%): 76.58 ± 0.74%
CT DNA [8]; first band listed in the cell
  ΔA/A0 (%) hyper-/hypo-chromism of UV band: +15%
EB–DNA adduct (CT DNA) [9]
  EB–DNA fluorescence quenching ΔI/Io (%): 65.0%
  Stern–Volmer constant KSV (EB–DNA): 8.59 (±0.35) × 10^5 M^–1
  quenching constant kq of the EB–DNA fluorescence: 3.73 (±0.15) × 10^13 M^–1s^–1

## O=C(O)c1ccccc1Nc1cccc(C(F)(F)F)c1 [Hfluf, flufenamic acid]
[7]
  % ABTS radical scavenging activity (ABTS%): 64.57 ± 0.43%
CT DNA [8]; first band listed in the cell
  ΔA/A0 (%) hyper-/hypo-chromism of UV band: +40%
  Δλ (nm) shift of λmax: +10 nm
CT DNA [8]; second band listed in the cell
  ΔA/A0 (%) hyper-/hypo-chromism of UV band: < −50%
  Δλ (nm) shift of λmax: 0 nm
EB–DNA adduct (CT DNA) [9]
  EB–DNA fluorescence quenching ΔI/Io (%): 67.0%
  Stern–Volmer constant KSV (EB–DNA): 6.34 (±0.30) × 10^5 M^–1
  quenching constant kq of the EB–DNA fluorescence: 2.76 (±0.13) × 10^13 M^–1s^–1
[10]
  BSA binding constant Κ(BSA): 1.06 (±0.04) × 10^6 M^–1
  BSA quenching constant kq(BSA): 1.83 (±0.20) × 10^13 M^–1s^–1
[11]
  HSA binding constant Κ(HSA): 1.79 (±0.17) × 10^5 M^–1
  HSA quenching constant kq(HSA): 1.86 (±0.21) × 10^12 M^–1s^–1

## Cc1cccc(Nc2ccccc2C(=O)O)c1C [Hmef, mefenamic acid]
[7]
  % ABTS radical scavenging activity (ABTS%): 66.32 ± 0.38%
CT DNA [8]; first band listed in the cell
  ΔA/A0 (%) hyper-/hypo-chromism of UV band: +10%
  Δλ (nm) shift of λmax: 0 nm
EB–DNA adduct (CT DNA) [9]
  EB–DNA fluorescence quenching ΔI/Io (%): 80.0%
  Stern–Volmer constant KSV (EB–DNA): 1.58 (±0.06) × 10^5 M^–1
  quenching constant kq of the EB–DNA fluorescence: 6.87 (±0.26) × 10^12 M^–1s^–1
[10]
  BSA binding constant Κ(BSA): 1.35 (±0.22) × 10^5 M^–1
  BSA quenching constant kq(BSA): 2.78 (±0.20) × 10^13 M^–1s^–1
[11]
  HSA binding constant Κ(HSA): 1.32 (±0.15) × 10^5 M^–1
  HSA quenching constant kq(HSA): 7.13 (±0.34) × 10^12 M^–1s^–1

## O=C(O)Cc1ccccc1Nc1c(Cl)cccc1Cl [Na dicl, sodium diclofenac]
[7]
  % ABTS radical scavenging activity (ABTS%): 76.35 ± 0.75%
CT DNA [8]; first band listed in the cell
  ΔA/A0 (%) hyper-/hypo-chromism of UV band: −7.5%
EB–DNA adduct (CT DNA) [9]
  EB–DNA fluorescence quenching ΔI/Io (%): 65.0%
  Stern–Volmer constant KSV (EB–DNA): 2.47 (±0.06) × 10^5 M^–1
  quenching constant kq of the EB–DNA fluorescence: 1.07 (±0.03) × 10^13 M^–1s^–1

## [Μn(Hdifl–O,O’)(Hdifl–O)(neoc)]·0.5MeOH [Complex 9]
[1]
  % ABTS radical scavenging activity (ABTS%): 25.80 ± 1.43%
CT DNA [2]; [12]
  ΔA/A0 (%) hyper-/hypo-chromism of UV band: +6%
CT DNA [2]; [13]
  Δλ (nm) shift of λmax: 0 nm
EB–DNA adduct (CT DNA) [3]
  Stern–Volmer constant KSV (EB–DNA): 1.01 (±0.42) × 10^6 M^–1
  relative EB–DNA fluorescence intensity (I/Io, %) remaining: 29.4%
  quenching constant kq of the EB–DNA fluorescence: 4.39 (±0.10) × 10^13 M^–1s^–1
[4]
  solubility: soluble in DMSO
[5]
  HSA binding constant Κ(HSA): 5.44 (±0.24) × 10^5 M^–1
  relative HSA fluorescence emission intensity (I/Io %) remaining: 24.9%
[6]
  BSA quenching constant kq(BSA): 2.99 (±0.16) × 10^13 M^–1s^–1
  BSA binding constant Κ(BSA): 5.67 (±0.27) × 10^5 M^–1
  relative BSA fluorescence emission intensity (I/Io, %) remaining: 24.8%

## [Μn(dicl–O,O’)2(neoc)]∙0.25 H2O [Complex 5]
[1]
  % ABTS radical scavenging activity (ABTS%): 99.20 ± 0.06%
CT DNA [2]; [12]
  ΔA/A0 (%) hyper-/hypo-chromism of UV band: +8%
CT DNA [2]; [13]
  Δλ (nm) shift of λmax: +2 nm
CT DNA [2]; [14]
  ΔA/A0 (%) hyper-/hypo-chromism of UV band: +7%
CT DNA [2]; [15]
  Δλ (nm) shift of λmax: −4 nm
EB–DNA adduct (CT DNA) [3]
  Stern–Volmer constant KSV (EB–DNA): 7.37 (±0.05) × 10^5 M^–1
  EB–DNA fluorescence quenching ΔI/Io (%): 69.9%
  relative EB–DNA fluorescence intensity (I/Io, %) remaining: 30.1%
  quenching constant kq of the EB–DNA fluorescence: 3.20 (±0.21) × 10^13 M^–1s^–1
[4]
  solubility: soluble in DMSO
[5]
  HSA binding constant Κ(HSA): 3.09 (±0.21) × 10^5 M^–1
  relative HSA fluorescence emission intensity (I/Io %) remaining: 0.8%
[6]
  BSA quenching constant kq(BSA): 3.46 (±0.16) × 10^13 M^–1s^–1
  BSA binding constant Κ(BSA): 6.32 (±0.32) × 10^5 M^–1
  relative BSA fluorescence emission intensity (I/Io, %) remaining: 12.7%

## [Μn(mef–O)2(py)2(H2O)(MeOH)]∙1.5py [Complex 2]
[1]
  % ABTS radical scavenging activity (ABTS%): 92.56 ± 0.74%
CT DNA [2]; [12]
  ΔA/A0 (%) hyper-/hypo-chromism of UV band: +7%
CT DNA [2]; [13]
  Δλ (nm) shift of λmax: 0 nm
CT DNA [2]; [14]
  ΔA/A0 (%) hyper-/hypo-chromism of UV band: < −50%
CT DNA [2]; [15]
  Δλ (nm) shift of λmax: elim
EB–DNA adduct (CT DNA) [3]
  Stern–Volmer constant KSV (EB–DNA): 2.30 (±0.53) × 10^5 M^–1
  relative EB–DNA fluorescence intensity (I/Io, %) remaining: 47.4%
  quenching constant kq of the EB–DNA fluorescence: 1.00 (±0.155) × 10^13 M^–1s^–1
[4]
  solubility: soluble in DMSO and DMF
[5]; % of the fluorescence intensity initially measured for albumin (HSA per Figure 11C)
  overall quenching of albumin fluorescence: 99.7%
[5]
  HSA binding constant Κ(HSA): 1.92 (±0.10) × 10^6 M^–1
  relative HSA fluorescence emission intensity (I/Io %) remaining: 0.3%
[6]
  BSA binding constant Κ(BSA): 1.03 (±0.16) × 10^6 M^–1
  relative BSA fluorescence emission intensity (I/Io, %) remaining: 9.7%

## [Μn(mef–O,O’)2(neoc)]∙1.5MeOH∙0.25 H2O [Complex 6]
[1]
  % ABTS radical scavenging activity (ABTS%): 98.69 ± 0.07%
CT DNA [2]; [12]
  ΔA/A0 (%) hyper-/hypo-chromism of UV band: +3%
CT DNA [2]; [13]
  Δλ (nm) shift of λmax: 0 nm
CT DNA [2]; [14]
  ΔA/A0 (%) hyper-/hypo-chromism of UV band: +2%
CT DNA [2]; [15]
  Δλ (nm) shift of λmax: −2 nm
EB–DNA adduct (CT DNA) [3]
  Stern–Volmer constant KSV (EB–DNA): 4.29 (±0.32) × 10^5 M^–1
  EB–DNA fluorescence quenching ΔI/Io (%): 60.6%
  relative EB–DNA fluorescence intensity (I/Io, %) remaining: 39.4%
  quenching constant kq of the EB–DNA fluorescence: 1.86 (±0.18) × 10^13 M^–1s^–1
[4]
  solubility: soluble in DMSO
[5]
  HSA binding constant Κ(HSA): 9.48 (±0.35) × 10^5 M^–1
  relative HSA fluorescence emission intensity (I/Io %) remaining: 5.6%
[6]
  BSA quenching constant kq(BSA): 1.87 (±0.04) × 10^14 M^–1s^–1
  BSA binding constant Κ(BSA): 1.08 (±0.38) × 10^6 M^–1
  relative BSA fluorescence emission intensity (I/Io, %) remaining: 5.9%
